Experimental data from the NIST ThermoML archive (doi:10.1016/j.jct.2011.12.001).
Values joined by “and” are separate entries in the source; they are usually repeats but may differ in a detail not shown here. Identical values can stand only once. Numbers after ± are expanded uncertainties.

Tests used:
[1] = Crystal, Calculated from knudsen effusion weight loss
[2] = molar enthalpy of transition or fusion; conditions: drop calorimetry
[3] = molar enthalpy of vaporization or sublimation; conditions: 298.15 K; Liquid; drop calorimetry

## COc1ccc(I)cc1 [1-iodo-4-methoxybenzene]
[1]; 271.17 K
  vapor or sublimation pressure: 0.000123 ± 2e-05 kPa and 0.00012 ± 2e-05 kPa and 0.000116 ± 2e-05 kPa
[1]; 273.17 K
  vapor or sublimation pressure: 0.000161 ± 2.1e-05 kPa and 0.000156 ± 2.1e-05 kPa and 0.000153 ± 2.1e-05 kPa
[1]; 275.13 K
  vapor or sublimation pressure: 0.000213 ± 2.1e-05 kPa and 0.000211 ± 2.1e-05 kPa and 0.000196 ± 2.1e-05 kPa
[1]; 277.16 K
  vapor or sublimation pressure: 0.000267 ± 2.2e-05 kPa and 0.000258 ± 2.2e-05 kPa and 0.000279 ± 2.2e-05 kPa
[1]; 279.06 K
  vapor or sublimation pressure: 0.00035 ± 2e-05 kPa and 0.000334 ± 2.3e-05 kPa and 0.000332 ± 2.3e-05 kPa
[1]; 281.16 K
  vapor or sublimation pressure: 0.000463 ± 2.6e-05 kPa and 0.000446 ± 2.6e-05 kPa and 0.000429 ± 2.5e-05 kPa
[1]; 283.17 K
  vapor or sublimation pressure: 0.000606 ± 2.9e-05 kPa and 0.000571 ± 2.8e-05 kPa and 0.000555 ± 2.8e-05 kPa
[1]; 285.14 K
  vapor or sublimation pressure: 0.000749 ± 3.3e-05 kPa and 0.000718 ± 3.2e-05 kPa
[1]; 287.14 K
  vapor or sublimation pressure: 0.000979 ± 4e-05 kPa and 0.000924 ± 3.8e-05 kPa and 0.000923 ± 3.8e-05 kPa
[2]; 349.4 K, Crystal
  molar enthalpy of transition or fusion: 21.61 ± 0.143 kcal/mol
[3]
  molar enthalpy: 19.7 ± 0.717 kcal/mol

## COc1cccc(I)c1 [3-iodoanisole]
[2]; 324.2 K, Liquid
  molar enthalpy of transition or fusion: 15.85 ± 0.0478 kcal/mol
[3]
  molar enthalpy: 14.9 ± 0.621 kcal/mol

## COc1ccccc1I [1-iodo-2-methoxybenzene]
[2]; 324.2 K, Liquid
  molar enthalpy of transition or fusion: 16.52 ± 0.0956 kcal/mol
[3]
  molar enthalpy: 15.6 ± 0.669 kcal/mol
